Paper PMC13576449, “Small-Molecule Activators of PRMT1: Discovery, SAR Analyses, and Proapoptotic Effects in Pancreatic Cancer Cells” (Journal of Medicinal Chemistry, 2026)

What was measured:
[1] = biological target: T1, FLAG-tagged PRMT1 (Rattus norvegicus, UniProt Q63009); experiment: Fluorescence-based in vitro PRMT assay (F-PRMT assay), PRMT1; type: biochemical; details: for activation at 100 µM: read-out: enhancement (increase) of PRMT1 enzymatic activity
T1 construct: Full-length FLAG-tagged PRMT protein; made in house; host or cells: Sf9 insect cells (baculovirus)
T1 sequence (Q63009 whole entry): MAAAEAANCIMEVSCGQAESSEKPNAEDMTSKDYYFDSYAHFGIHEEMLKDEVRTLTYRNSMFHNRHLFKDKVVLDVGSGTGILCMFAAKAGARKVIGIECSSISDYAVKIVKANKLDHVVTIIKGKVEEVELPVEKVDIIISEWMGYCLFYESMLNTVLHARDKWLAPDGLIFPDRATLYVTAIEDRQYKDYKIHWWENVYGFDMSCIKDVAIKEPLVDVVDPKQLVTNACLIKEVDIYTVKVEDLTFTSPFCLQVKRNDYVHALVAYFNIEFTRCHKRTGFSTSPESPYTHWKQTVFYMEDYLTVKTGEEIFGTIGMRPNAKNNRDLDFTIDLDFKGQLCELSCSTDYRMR

[2] = system: FLAG-tagged PRMT1 and His-tagged PRMT1; experiment: Pulldown assay of PRMT1 homodimerization; type: binding; details: 200 (and 500) μM compound vs DMSO
Text: The poses were obtained by docking with HYBRID onto previously obtained docking poses of TR-033 (TR-07 in cyan) and TR-036 (TR-07 in red). The two monomers are colored in dark and light gray. The dimerization arm of the right monomer is colored in pale pink. The αY helix of the other monomer is colored pale green. The SAH location (derived from a superposition with PDB ID 6NT2) is indicated in pale yellow, but the molecule was not present during the docking calculations. The two images on the right show a close-up view of each docking pose separately. […] The dashed line separates the first and the second monomer. […] The N-terminal αY helix, the SAH location (derived from a superposition with PDB ID 3Q7E), the arginine acceptor site (derived from a superposition with PDB ID 1OR8), the Double E loop, and the dimerization arm are indicated. […] Subsequently, FLAG-beads were washed and bead-bound proteins were analyzed together with an His-tagged PRMT1 input (20 ng) by Western blot using antibodies against the His- and FLAG-tags. As negative control, anti-FLAG resin saturated with FLAG peptide was incubated with His-tagged PRMT1. The His-PRMT1 signals were densitometrically quantified, corrected to the FLAG-PRMT1 signals, and expressed relative to the solvent control, as specified by the numbers below the immunostainings. Molecular weights (kDa) of the protein marker are indicated.
To evaluate the effect of small-molecule PRMT1 modulators on the dimerization of His-tagged and FLAG-tagged PRMT1, pulldown assays were conducted. For the binding reactions, 1 μg of bead-bound FLAG-tagged PRMT1 was preincubated with or without compounds at a total volume of 200 μL IPH buffer (50 mM Tris/HCl pH 8.0, 5 mM EDTA, 0.5% (v/v) NP-40, 150 mM NaCl) containing protease inhibitors (leupeptin, aprotinin, PMSF; Sigma-Aldrich) at 4 °C and under gentle agitation for 30 min. Subsequently, 0.02 μg His-tagged PRMT1 was added per reaction and incubated at 4 °C and under gentle agitation for 15 min. Finally, the beads were washed 3 times in IPH buffer containing 400 mM NaCl and analyzed by SDS-PAGE and immunoblotting.

[3] = system: PANC-1 cells; experiment: Annexin V/PI flow cytometry apoptosis assay, PANC-1; type: cell-based, human; details: TR-07 10 μM; for gemcitabine-induced apoptosis, AV/PI flow cytometry, co-treatment: TR-033 5 µM, TR-036 10 µM, ICTR-059 5 µM, after 24 h gemcitabine 1 μM, 48 h, vs gemcitabine alone
Protocol: 6 Effect of small-molecule modulators on gemcitabine-induced apoptosis and tumor growth of PDAC cells. […] After 2 h, gemcitabine (GEM) was added at increasing concentrations (10 and 25 nM) or not (−) for another incubation of 72 h. Subsequently, the luminescence-based caspase3/7 assay was performed. The activity of caspase 3/7 in treated cells was normalized to the activity measured in untreated cells (dark gray bar), which was set to 1 (mean SD, n = 6 for PANC-1 and n = 4 for PaTu8988T; *: p ≤ 0.05, **: p ≤ 0.01, ***: p ≤ 0.001, using the student t-test). […] After 24 h, gemcitabine (GEM, 1 μM) was added (+) or not (−) for another incubation of 48 h. Subsequently, the apoptotic cell fraction was quantified in % by flow cytometry using FITC-labeled Annexin V (AV) and propidium iodide (PI) staining (in B: mean ± SD, n = 6 for PANC-1 and n = 5 for PaTu8988T; **: p ≤ 0.01, ***: p ≤ 0.001, ****: p ≤ 0.0001, using the student t-test). […] Viable cells are AV/PI double-negative (AV–/PI–, lower left quadrant, Q4), early apoptotic cells are AV single-positive (AV+/PI– upper left quadrant, Q1), late apoptotic cells are AV/PI double-positive (AV+/PI+, upper right quadrant, Q2), and necrotic cells are PI single-positive (AV–/PI+, lower right quadrant, Q3). The sum of early and late apoptotic cell numbers ([…] in %) is indicated in red. D-G: The workflow of the PDAC xenograft experiments in mice is depicted in D. PANC-1 cells (2 × 10^6 cells/mouse) were subcutaneously (s.c.) injected in the right flank of female athymic nude mice. Small tumor nodules appeared 6 days post-engraftment. […] Tumor volumes were measured every second day using a digital caliper. […] At the end of the 2 weeks, mice were sacrificed and tumors were dissected (F).
For quantification of apoptosis by Fluorescence Activated Cell Sorting (FACS), PANC-1 and PaTu8988T cells were seeded in 6-well plates (250 × 10^3 cells/well) and cultured in the absence or presence of compounds. After 24 h, gemcitabine was added or not for another 48 h. After harvesting and washing, unfixed cells (0.5–1 × 10^6) were incubated with FITC-labeled Annexin V and/or PI (BD Pharmingen) according to the manufacturer’s instructions. All samples were analyzed using a BD FACSCalibur flow cytometer (BD Bioscience). Data were acquired using the CellQuestPro program and analyzed with the FlowJo (FlowJo LLC) software. […]
induced apoptosis in PDAC cell lines.
After 24 hours, gemcitabine (GEM, 1 µM) was added (+) or not
(-) for another incubation of 48 hours. Subsequently, the apoptotic cell fraction was assessed by flow cytometry using FITC-labeled Annexin V (AV) and propidium iodide (PI) staining and quantified in % (mean ± SD, n=3-4; ns: not significant, *: p ≤0.05, **: p ≤0.01, ***: p ≤0.001, ****: p ≤0.0001, using the student t-test).

[4] = 100 μM compound, increase over solvent-treated activity

Row | Compound | enhancement (increase) of PRMT1 enzymatic activity [1, 4] | Efficacy ±Δ% (PRMT1) ([1]; Table 1, 100 μM compound, mean % difference of activity vs solvent control (100%), - inhibition, + activation, n = 3) | Efficacy ±∆% (PRMT1) ([1]; Table S3, 100 µM compound, mean % difference vs solvent control (100%), n≥3) | EC50 ([1]; read-out: half-maximal effective concentration (EC50) for PRMT1) | interaction of FLAG-tagged PRMT1 and His-tagged PRMT1 (homodimerization) [2] | apoptosis, AV/PI flow cytometry, single agent [3] | gemcitabine-induced apoptosis, AV/PI flow cytometry, co-treatment [3] | PRMT1 activity compared to the solvent-treated activity of 100% ([1]; 100 μM compound) | effect on PRMT1 activity (in words) ([1]; 100 μM compound) | activation at 100 µM [1, 4]
1 | CN(C)Cc1cccc(CN/C=C2\C(=O)NC(=O)c3ccccc32)c1.Cl [TR-07, (Z)-1-[3-({[(1,3-Dioxo-2,3-dihydroisoquinolin-4(1H)-lidene)methyl]amino}methyl)phenyl]-N,N-dimethylmethanaminium chloride] | +45% | +45% | +45% | 108 µM | elevated interaction of the two PRMT1 species | did not significantly induce apoptosis | significant increase in the early and late apoptotic stages |  |  | 
2 | CN(C)Cc1cccc(-c2ccc3[nH]c(=O)c4ccccc4c3c2)c1 [TR-033, 2-{3-[(Dimethylamino)methyl]phenyl}phenanthridin-6(5H)-One] |  |  |  |  | elevated interaction of the two PRMT1 species |  | rather diminished the gemcitabine-triggered cell death | 215–225% | significantly increased PRMT1 activity | ≥ 60%
3 | CCN(CC)Cc1cccc(N/C=C2\C(=O)NC(=O)c3ccccc32)c1.Cl [TR-036, (Z )-N-(3-{[(1,3-Dioxo-2,3-dihydroisoquinoline-4(1 H )-ylidene)methyl]amino}benzyl)-N -ethylethanaminium chloride] |  |  |  |  | elevated interaction of the two PRMT1 species |  | rather diminished the gemcitabine-triggered cell death | 215–225% |  | ≥ 60%
4 | (Z)-2-(2-{[(1,3-Dioxo-2,3-dihydroisoquinolin-4(1H)-ylidene)methyl]amino}phenyl)-N,N-dimethylethan-1-aminium chloride [ICTR-059] |  |  |  |  | elevated interaction of the two PRMT1 species |  | had no effect | up to 200% |  | 
